Laboratory results as given in US6569638B1, “Method for screening compounds for the treatment of neoplasia” (Cell Pathways, Inc, priority 2000, dated 2003).
Where two headings read alike, the source gives them in different places.

Key:
[1] = biological target: T1, GST-cGB-PDE5 fusion protein (cGMP binding sites of human PDE5A) (Homo sapiens, UniProt O76074); assay: cGMP binding assay (3H-cGMP competition)
T1 construct: made in house; host or cells: E. coli BL21 (DE3)

[2] = tested on: PKG in SW480 colon cancer cells; assay: PKG assay of drug-treated cell lysates (GST-cGB-PDE5 solid phase substrate); format: cell-based, human; conditions: 48 hrs, exisulind 200, 400, 600 μM, E4021 0.1, 1, 10 μM, with and without added cGMP
Procedure: To test the effect of cGMP-specific PDE inhibition on neoplasia containing the APC mutation, SW480 colon cancer cells were employed. SW 480 is known to contain the APC mutation. About 5 million SW480 cells in RPMI 5% serum are added to each of 8 dishes:
2-10 cm dishes—30 μL DMSO vehicle control (without drug),
3-10 cm dishes—200 μM, 400 μM, 600 μM exisulind in DMSO, and
The dishes are incubated for 48 hrs at 37° C. in 5% CO2 incubator.
The liquid media are aspirated from the dishes (the cells will attach themselves to the dishes). The attached cells are washed in each dish with cold PBS, and 200 μL cell lysis buffer (i.e., 50 mM Tris-HCl, 1% NP-40, 150 mM NaCl, 1 mM EDTA, 1 mM Na3VO4, 1 mM NaF, 500 μM IBMX with proteinase inhibitors) is added to each dish. Immediately after the cell lysis buffer is added, the lysed cells are collected by scraping the cells off each dish. The cell lysate from each dish is transferred to a microfuge tube, and the microfuge tubes are incubated at 4° C. for 15 minutes while gently agitating the microfuge tubes to allow the cells to lyse completely. […]
For each control or drug cell lysate sample to be evaluated, the reaction is started by adding phosphorylation buffer containing 10 μCi ^32P-γ-ATP solution (200 μM ATP, 4.5 mM MgCl; 5 mM KH2PO4; 5 mM K2HPO4;) to each mixture. […]

[3] = tested on: JNK1 in SW480 colon cancer cells; assay: JNK1 immunoprecipitation in vitro kinase assay with GST-c-Jun(1-79); format: cell-based, human; conditions: for JNK1 activation by cGMP modulators: SW480 cells, one hour, dbcGMP 500 μM, dbcAMP 500 μM, YC-1 50 μM, MY-5445 50 μM, dipyridamole 10 μM; for inhibition of Compound B-induced JNK1 activation: SW480 cells pre-treated 2 μM for 2 hours, then Compound B 1 or 10 μM for one hour
Procedure: The cells were lysed, JNK1 immunoprecipitated with an anti-JNK1 antibody, and the immunoprecipitate (“IP”) assayed for in vitro kinase activity with GST-c-Jun(1-79) as the substrate. The experiments were repeated three times with similar results. Fold activation was measured using a Phosphor Imager.
FIG. 1B: SW480 cells were treated with Compound A (1 μM) for the indicated time periods and in vitro JNK1 kinase activity was determined as described above.
FIG. 2A SW480 cells were treated with either DMSO (−) or Compound A, 0.1 μM; dbcGMP, 500 μM; YC-1, 50 μM; MY-5445, 50 μM; dipyridamole, 10 μM or dbcAMP, 500 μM for one hour. The cells were lysed, JNK1 immunoprecipitated, and the IP assayed for in vitro kinase activity as described in FIG. 1A.
FIG. 2B SW480 cells were pre-treated with either DMSO, KT5720 (2 μM) or Rp-8-pCPT-cGMPS (2 μM) for 2 hours and then treated with Compound B (0, 1 or 10 μM) for one hour. The cells were lysed and assayed for JNK1 activation in the IP as described above.
These concentrations were chosen since they provided optimal induction of apoptosis. Endogenous JNK1 was immunoprecipitated with anti-JNK1 antibody and in vitro kinase assays were performed with GST-c-Jun(1-79) as the substrate. […]
However, the precise role of PKG in signal transduction pathways is not known. […] As a control, KT5720 was used as a protein kinase A (“PKA”)-specific inhibitor. SW480 cells were treated with either DMSO, KT5720 (2 μM) or Rp-8-pCPT-cGMPS (2 μM) for 2 hours and then treated with either DMSO or Compound B (1 or 10 μM) for one hour. Cell extracts were collected and assayed for JNK1 activation.

PARP in SW480 cells = assay: PARP cleavage by Western blot; format: cell-based, human; conditions: SW480 cells pre-incubated 2 μM for 2 hours, then Compound A 1 μM 2 days
Procedure: SW480 cells were pre-treated with either DMSO (−) or Rp-8-pCPT-cGMPS (2 μM) for 2 hours and then treated with either DMSO (−) or Compound A (1 μM). Both the floating and attached cells were collected after 2 days, and the cell lysates were assayed for PARP cleavage by Western blotting with anti-PARP antibody. Fold increase in PARP cleavage was measured by densitometry of the 85 kD fragment.
Finally, we investigated whether activation of the PKG pathway is required for the induction of apoptosis by SAANDs. SW480 cells were treated with either DMSO or the PKG inhibitor Rp-8-pCPT-cGMPS (2 μM) for 2 hours and then the cells were treated with either DMSO or Compound A (1 μM) for 2 days. Both the floating and attached cells were collected, and the cell lysates were assayed for poly (ADP-ribose) polymerase (PARP) cleavage by Western blotting with an anti-PARP antibody. PARP is a 116 kD nuclear enzyme that converts NAD to nicotinamide and protein-linked ADP-ribose polymers, which are important for DNA repair and genomic maintenance. In cells that are undergoing apoptosis the 116 kD PARP protein is cleaved by caspase-3 into 85 and 25 kD fragments, thus resulting in loss of normal PARP function. This inactivation of PARP apparently prevents depletion of cellular levels of NAD and ATP, which are thought to be required for later events in apoptosis.

native bovine PDE5 = native bovine PDE5 (Bos taurus, UniProt Q28156); conditions: read-out: Kd of cGMP binding; cited from earlier work
[4] = at high concentration (100 μM) against cGMP 2 μM

T1 sequence (O76074 46-539 limits assumed): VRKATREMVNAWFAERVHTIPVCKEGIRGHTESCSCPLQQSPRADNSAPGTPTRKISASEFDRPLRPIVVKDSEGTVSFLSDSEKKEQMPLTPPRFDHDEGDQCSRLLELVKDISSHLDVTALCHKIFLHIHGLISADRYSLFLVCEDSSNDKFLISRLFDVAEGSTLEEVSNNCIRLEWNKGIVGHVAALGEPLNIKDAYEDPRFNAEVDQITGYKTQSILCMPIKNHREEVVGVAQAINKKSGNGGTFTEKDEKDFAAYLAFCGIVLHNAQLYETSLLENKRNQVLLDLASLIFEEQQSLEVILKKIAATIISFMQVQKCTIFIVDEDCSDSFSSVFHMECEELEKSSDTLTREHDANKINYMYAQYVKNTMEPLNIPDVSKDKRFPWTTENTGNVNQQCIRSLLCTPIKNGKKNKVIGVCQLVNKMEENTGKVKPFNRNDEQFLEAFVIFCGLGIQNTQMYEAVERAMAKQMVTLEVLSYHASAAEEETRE

## CCCOc1ccccc1-c1nc2nn[nH]c2c(=O)[nH]1 [zaprinast]
[1]; 3H-cGMP 2 μM, 22° C., 1 hour
  competition with cGMP for the cGMP binding sites of GST-cGB-PDE5: None of the PDE5 inhibitors showed any competition with cGMP

## O=C([O-])C1CCN(c2nc(NCc3ccc4c(c3)OCO4)c3cc(Cl)ccc3n2)CC1.[Na+] [Compound E4021]
[1]; 3H-cGMP 2 μM, 22° C., 1 hour
  competition with cGMP for the cGMP binding sites of GST-cGB-PDE5: None of the PDE5 inhibitors showed any competition with cGMP
[2]
  PKG activity relative to control: do not exhibit PKG activation relative to control

## Clc1cccc(Nc2nnc(-c3ccccc3)c3ccccc23)c1 [MY-5445, 1-(3-chloroanilino)-4-phenyphthalazine]
[3]
  JNK1 activation by cGMP modulators: also activated JNK1

## Nc1nc2c(nc(Sc3ccc(Cl)cc3)n2[C@@H]2O[C@@H]3CO[P@@](=O)(S)O[C@H]3[C@H]2O)c(=O)[nH]1 [Rp-8-pCPT-cGMP, reference compound]
[3]
  inhibition of Compound B-induced JNK1 activation: strongly inhibited
PARP in SW480 cells
  inhibition of Compound A-induced PARP cleavage: significantly inhibited

## CCCCOC1C2OP(=O)(O)OCC2OC1n1cnc2c(N)ncnc21 (stereo not drawn) [2′-O-butyl-cAMP]
[1]; 3H-cGMP 2 μM, 22° C., 1 hour
  competition with cGMP for the cGMP binding sites of GST-cGB-PDE5: did not compete with cGMP in binding

## Nc1nc2c(ncn2[C@@H]2O[C@@H]3COP(=O)(O)O[C@H]3[C@H]2O)c(=O)[nH]1 [cGMP, cyclic 3′,5′-guanosine monophosphate]
Native bovine PDE5
  Kd: 1300 nM
[1]
  Kd: 1600 ± 200 nM
[1]; 3H-cGMP 2 μM, 22° C., 1 hour
  competition with cGMP for the cGMP binding sites of GST-cGB-PDE5: specifically binds GST-cGB-PDE5 protein

## CCCC(=O)Nc1ncnc2c1ncn2[C@@H]1O[C@@H]2COP(=O)(O)O[C@H]2[C@H]1OC(=O)CCC [dbcAMP, dibutyryladenosine 3′:5′-cyclic monophosphate]
[3]
  JNK1 activation by cGMP modulators: inactive

## CCCC(=O)Nc1nc2c(ncn2C2OC3COP(=O)([O-])OC3C2OC(=O)CCC)c(=O)[nH]1.[Na+] (stereo not drawn) [dbcGMP, Dibutyrylguanosine 3′:5′-cyclic monophosphate]
[3]
  JNK1 activation by cGMP modulators: activated JNK1

## CCCCCCOC(=O)[C@]1(O)C[C@@H]2O[C@@]1(C)n1c3ccccc3c3c4c(c5c6ccccc6n2c5c31)C(=O)NC4 [KT5720]
[3]
  inhibition of Compound B-induced JNK1 activation: no inhibitory activity

## O=c1[nH]cnc2c1ncn2[C@@H]1O[C@@H]2COP(=O)(O)O[C@H]2[C@H]1O [Cyclic IMP, cyclic IMP]
[1]; [4]
  competition with cGMP for the cGMP binding sites of GST-cGB-PDE5: can partially compete with cGMP

## O=c1ccn([C@@H]2O[C@@H]3COP(=O)(O)O[C@H]3[C@H]2O)c(=O)[nH]1 [cUMP, cyclic UMP]
[1]; 3H-cGMP 2 μM, 22° C., 1 hour
  competition with cGMP for the cGMP binding sites of GST-cGB-PDE5: did not compete with cGMP in binding

## OCCN(CCO)c1nc(N2CCCCC2)c2nc(N(CCO)CCO)nc(N3CCCCC3)c2n1 [dipyridamole]
[3]
  JNK1 activation by cGMP modulators: also activated JNK1

## Nc1nc2c(nc(Br)n2[C@@H]2O[C@@H]3COP(=O)(O)O[C@H]3[C@H]2O)c(=O)[nH]1 [Compound 8-bromo-cGMP, 8-bromo-cGMP]
[1]; [4]
  competition with cGMP for the cGMP binding sites of GST-cGB-PDE5: can partially compete with cGMP

## CCCCOC1C2OP(=O)(O)OCC2OC1n1cnc2c(=O)[nH]c(N)nc21 (stereo not drawn) [2′-O-butyl-cGMP]
[1]; 3H-cGMP 2 μM, 22° C., 1 hour
  competition with cGMP for the cGMP binding sites of GST-cGB-PDE5: did not compete with cGMP in binding

## OCc1ccc(-c2nn(Cc3ccccc3)c3ccccc23)o1 [YC-1]
[3]
  JNK1 activation by cGMP modulators: also activated JNK1

## Nc1ncnc2c1ncn2[C@@H]1O[C@@H]2COP(=O)(O)O[C@H]2[C@H]1O [Cyclic AMP]
[1]
  competition with cGMP for the cGMP binding sites of GST-cGB-PDE5: did not compete with cGMP in binding

## Nc1ccn([C@@H]2O[C@@H]3COP(=O)(O)O[C@H]3[C@H]2O)c(=O)n1 [cCMP, cyclic CMP]
[1]; 3H-cGMP 2 μM, 22° C., 1 hour
  competition with cGMP for the cGMP binding sites of GST-cGB-PDE5: did not compete with cGMP in binding
